Laboratory results published in PMC12651750 (Cells, 2025).
Read-outs that look alike come from different tables or passages of the source.

Experiments:
Jurkat cells [1] = experiment: Whole proteomic analysis (mass spectrometry); assay type: cell-based, human
Experimental: The cell cultivation was completed in a 60 mm plate; the number of cells accounted for roughly 30–40% of the orifice. We stimulated cells with 1 μM and 5 μM of NBU-2 and 0.1% DMSO. […] After 48 h, the cells were collected, about 200 μL of NP-40 Lysis Buffer containing phosphatase inhibitor and protease inhibitor was added, and the cells were lysed to release the proteins. Measure the protein concentration of each group of samples using the BCA protein quantification method. The disulfide bonds in the protein structure were reduced using TCEP and then alkylated with IAA. Samples were added to a centrifugal filtration unit with an ultrafiltration membrane, and proteins were digested using trypsin 2 times, the first time for 4 h and the second time overnight with the addition of an appropriate amount of trypsin. […] Samples were reconstituted using 0.1% formic acid, and approximately 1 μg of protein was taken for detection using mass spectrometry.
Mass spectrometry analysis was performed using an Orbitrap Fusion Lumos mass spectrometer (Thermo Fisher Scientific, Shanghai, China). Chromatographic separations were performed on an Acclaim PepMap C18 column using a 60 min linear gradient elution program: the proportion of mobile phase B (acetonitrile containing 0.1% formic acid) was increased from 2% to 35%, and the flow rate was maintained at 250 nL/min. […]

[2] = test system: Jurkat, human leukemic T cell line; experiment: Anti-proliferation MTT / CCK-8 assay; assay type: cell-based; conditions: 72 h; for IC50: Homo sapiens, Jurkat
Experimental: These cells were purchased from the National Collection of Authenticated Cell Cultures (Shanghai, China).
(§1) The concentration of the cell suspension was adjusted to the appropriate concentration with fresh medium (the number of cells was about 30–40% of the bottom area of the well plate). 150 μL (about 1 × 10^4 cells) of prepared cell suspension containing different concentrations of NBU-2 were added to a 96-microtiter plate, and 3 replicate wells were set up for each concentration. If the cells were adherent, the cells were first allowed to grow overnight in 96 microtiter plates until the cells were adherent, and then the old medium was replaced with the drug-containing medium. The plates were incubated in a 5% CO2 cell incubator at 37 °C for 72 h. Then, 15 μL of MTT solution was added to each well, 100 μL of 10% SDS solution (pH = 2) was added after 4 h, and the plate was incubated at 37 °C with 5% CO2 overnight to fully dissolve the crystals.
(§2) The cells (about 1 × 10^4 cells) were treated with different concentrations of NBU-2 and DMSO control for different times (24 h, 48 h, 72 h), with 3 replicate wells for each concentration. Incubate at 37 °C in a 5% CO2 cell culture incubator. After a predetermined time, 10 μL of CCK-8 was added to each well and incubated for 2 h. The absorbance was measured at the excitation wavelength of 450 nm.

Jurkat cells [3] = experiment: Annexin V-FITC/PI apoptosis assay (flow cytometry); assay type: cell-based, human; conditions: 48 h
Experimental: Apoptosis was assessed using an Annexin V-FITC Apoptosis Detection Kit according to the manufacturer’s instructions. Briefly, cells were double-stained with fluorescein isothiocyanate (FITC)-conjugated Annexin V and propidium iodide (PI). Jurkat cells were cultured to the appropriate density. Three sets of concentration gradients, namely 0.2 μM, 1 μM, and 5 μM, were established while DMSO was used as the control. The Jurkat cells were cultured for 48 h. Centrifuge at 1000× g for 5 min to precipitate the cells. We collected the cells, added the staining solution according to the instructions of the Annexin V-FITC Apoptosis Detection Kit to complete the staining, and immediately tested the cells on Flow cytometry.

Jurkat cells [4] = experiment: Cell cycle analysis (propidium iodide, flow cytometry); assay type: cell-based, human; conditions: 48 h
Experimental: Jurkat cells were cultured to the appropriate density. Jurkat cells were stimulated with three concentration gradients of 0.2 µM, 1 µM, and 5 µM of NBU-2, and DMSO (as a control) for 48 h. Cells were collected, fixed overnight using pre-cooled 70% ethanol, and then stained according to the instructions. Subsequently, flow cytometry was used to detect using flow cytometry.

[5] = test system: PC12, pheochromocytoma of the rat adrenal medulla; experiment: Anti-proliferation MTT / CCK-8 assay; assay type: cell-based; conditions: PC-12, 72 h
Text: (§3) K562, human erythroleukemia line; HL-60, human leukemic cell line; Jurkat, human leukemic T cell line; CCRF-CEM, human leukemic lymphoblasts; U937, human histiocytic lymphoma; HCT-116, human colorectal cancer cell line; A549, human lung cancer cell line; Hep G2, human hepatoma cell lines; MDA-MB-231, MCF-7, human breast cancer cell line; 4T1, mouse breast cancer cell line; PC12, pheochromocytoma of the rat adrenal medulla; HUVEC, human umbilical vein endothelial cells. These cells were purchased from the National Collection of Authenticated Cell Cultures (Shanghai, China).
as §1, with “crystals. Finally, the absorbance value of each well was measured at 570 and 655 nm.” for “crystals.”
as §2

[6] = test system: K562, human erythroleukemia line; experiment: Anti-proliferation MTT / CCK-8 assay; assay type: cell-based; conditions: K562, read-out: IC50 proliferation K562, heading: IC50 proliferation K562, 72 h, mean ± SEM of three independent assays
Text: as §3
as §1, with “crystals. Finally, the absorbance value of each well was measured at 570 and 655 nm.” for “crystals.”
as §2

[7] = test system: CCRF-CEM, human leukemic lymphoblasts; experiment: Anti-proliferation MTT / CCK-8 assay; assay type: cell-based
Text: as §3
as §1, with “crystals. Finally, the absorbance value of each well was measured at 570 and 655 nm.” for “crystals.”
as §2

[8] = test system: A549, human lung cancer cell line; experiment: Anti-proliferation MTT / CCK-8 assay; assay type: cell-based; conditions: A549, read-out: IC50 proliferation A549, heading: IC50 proliferation A549, 72 h, mean ± SEM of three independent assays
Text: as §3
as §1, with “crystals. Finally, the absorbance value of each well was measured at 570 and 655 nm.” for “crystals.”
as §2

[9] = test system: HCT-116, human colorectal cancer cell line; experiment: Anti-proliferation MTT / CCK-8 assay; assay type: cell-based; conditions: HCT-116, read-out: IC50 proliferation HCT-116, heading: IC50 proliferation HCT-116, 72 h, mean ± SEM of three independent assays
Text: as §3
as §1, with “crystals. Finally, the absorbance value of each well was measured at 570 and 655 nm.” for “crystals.”
as §2

Cc1cccc2c(=O)c3c(NCCCCCC(=O)NO)ccc([N+](=O)[O-])c3[nH]c12 [NBU-2, N-hydroxy-6-((5-methyl-4-nitro-9-oxo-9,10-dihydroacridin-1-yl)amino)hexanamide]
Total Akt protein (proteomics) (Jurkat cells [1]; 1 µM and 5 µM vs DMSO, p > 0.05): did not show any significant change | Expression of Rb (proteomics) (Jurkat cells [1]; 48 h): not affected | Inhibitory effect on Jurkat cells over time ([2]; CCK-8, 24 h, 48 h, various concentrations): concentration and time-dependent | IC50 ([2]; read-out: IC50 against Jurkat cells): 0.86 µM | IC50 ([2]; read-out: IC50 proliferation Jurkat, heading: IC50 proliferation Jurkat, mean ± SEM of three independent assays): 0.86 ± 0.13 µM | Percentage of cells in early apoptotic stage (Q3) (Jurkat cells [3]; 0.2 μM): 11.5% | Percentage of cells in early apoptotic stage (Q3) (Jurkat cells [3]; 1 μM): 16.1% | Percentage of cells in early apoptotic stage (Q3) (Jurkat cells [3]; 5 μM): 84.7% | Percentage of cells in G0/G1 phase (2N) (Jurkat cells [4]; 0.2 μM): 35.3% | Percentage of cells in G0/G1 phase (2N) (Jurkat cells [4]; 1 μM): 40.4% | Percentage of cells in G0/G1 phase (2N) (Jurkat cells [4]; 5 μM): 57.9% | IC50 [5]: > 0.05 µM | IC50 [6]: 7.02 ± 1.85 µM | IC50 ([7]; 72 h, read-out: IC50 against CCRF-CEM): < 5 µM | IC50 ([7]; read-out: IC50 proliferation CCRF-CEM, 72 h, mean ± SEM of three independent assays): 2.68 ± 0.3 µM | IC50 [8]: 33.7 ± 2.15 µM | IC50 [9]: 7.06 ± 1.48 µM
